Measured values taken from patent US9937185B2, “Imidazopyridine compounds and uses thereof” (NEOMED INSTITUTE, priority 2013, dated 2018).
Blank lines part the entries; values can stand above or below the compound they belong to.

Assays:
[1] = system: rat FCA 96 hr paw model of inflammatory pain, heat hyperalgesia; test: Rat FCA 96 hr paw model of inflammatory pain: heat hyperalgesia (Plantar Test); type: in vivo; settings: oral dosing 0.3-1-3-10-20 μmol/kg, 96 h after FCA
Procedure: (§1) One of the compounds of the present invention was evaluated in an in vivo model of inflammatory pain.
(§2) Male Sprague-Dawley rats (Charles River, St-Constant, Qc, CAN) weighing 200-225 g were utilized for the animal experiment studies. The animals were group-housed in polycarbonate, ventilated cages (filter top) in a controlled environment room (12-h light/dark cycle, 20.5-23.5° C., relative humidity: 40-70%) with food (14% Protein Rodent Maintenance Diet, Harlan Teklad, Madisson, Wis., USA) and water ad libidum.
Inflammation was induced by injection of a single 40 μl Freund's complete adjuvant (FCA) intra-plantar injection into the rat's left hindpaw. All experiments were conducted 96h after FCA administration. […]
Heat hyperalgesia (Plantar Test) was assessed using a Paw Thermal Stimulator to apply a controlled heat to the plantar surface of the affected paw. […] The heat source and timer were then turned on simultaneously; when the animal withdrew the hind paw the number of seconds was recorded. […]
Satellite animals were used to monitor the free plasma concentration of example 15 at the doses and time points used in the nociceptive tests. Free plasma EC50 values in behavioral studies were determined from 4-point concentration-response curves using non-linear regression and a sigmoidal variable slope logistic model (Prism 4.03, GraphPad Software Inc., USA).

[2] = system: rat FCA 96 hr paw model of inflammatory pain, mechanical hyperalgesia; test: Rat FCA 96 hr paw model of inflammatory pain: mechanical hyperalgesia (Ugo Basile analgesy meter); type: in vivo; settings: oral dosing 0.3-1-3-10-20 μmol/kg, 96 h after FCA
Procedure: as §1, §2
Inflammation was induced by injection of a single 40 μl Freund's complete adjuvant (FCA) intra-plantar injection into the rat's left hindpaw. All experiments were conducted 96h after FCA administration. Twenty-four hours prior to behavioral testing animals were brought to the laboratory for acclimatization to the new environment. Animals were sacrificed immediately after data acquisition.
Mechanical hyperalgesia was assessed using the Ugo Basile analgesy meter (Ugo Basile, Comerio, Italy) Animals were gently restrained, and a steadily increasing pressure was applied to the dorsal surface of a hind paw via a probe with a dome-shaped tip (diameter of 1 mm). The pressure required to elicit paw withdrawal was determined. An assay cut off was set at 295 g. […] Paw withdrawal thresholds were calculated as the mean of the two values. […]

[3] = target: T1, hP2X3 (human Purinergic P2X receptors subtype 3) (Homo sapiens, UniProt P56373); test: Fluo-4 calcium mobilization assay (FDSS7000), antagonists at human P2X3 receptor in RLE/hP2X3 cells; type: cell-based; settings: RLE cells stably expressing hP2X3; 20 min preincubation; 2 uM ATP
T1 construct: expressed in transfected cells; host or cells: RLE cells (rat liver endothelium, ATCC)
T1 sequence (P56373 1-397): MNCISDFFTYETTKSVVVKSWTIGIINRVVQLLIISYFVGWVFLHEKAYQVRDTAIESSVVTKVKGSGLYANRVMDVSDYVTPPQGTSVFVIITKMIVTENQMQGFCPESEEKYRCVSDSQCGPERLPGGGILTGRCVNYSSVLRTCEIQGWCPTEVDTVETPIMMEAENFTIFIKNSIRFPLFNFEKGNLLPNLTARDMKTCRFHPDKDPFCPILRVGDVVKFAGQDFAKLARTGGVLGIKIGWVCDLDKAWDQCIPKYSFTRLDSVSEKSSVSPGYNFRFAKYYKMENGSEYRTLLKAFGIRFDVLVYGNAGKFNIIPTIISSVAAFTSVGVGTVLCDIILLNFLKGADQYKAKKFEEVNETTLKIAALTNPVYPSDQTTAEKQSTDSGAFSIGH
Procedure: The antagonist properties of compounds in the present invention were assayed as inhibitors of intracellular calcium increase induced by activation of hP2X3 (human Purinergic P2X receptors subtype 3, accession number AB016608 for clone A and accession number NM_002559 for clone B), expressed in RLE cells (rat liver […], ATCC. The RLE/hP2X3 cells were grown in William's medium 1× (Gibco, 12551-032), supplemented with 10% Fetal bovine serum (Wisent, 090850), 2 mM L-Glutamine (Wisent, 609-065-EL), and 600 μg/mL Geneticin G-418 (Wisent, 61234) in a humidified incubator (5% CO2 and 37° C.).
Fluo-4 assay on FDSS7000 (Hamamatsu) was performed using cryopreserved RLE cells stably expressing hP2X3 plated in 384 well plates, 24 hr before the experiment at a density appropriate for obtaining the desired final confluence. After processing the cell plates with Fluo-4 and performing a subsequent incubation followed by washing steps, a double addition was carried out. The first addition included the test compounds diluted in HBSS buffer containing 2 mM CaCl2 preincubated for 20 min before a second addition. The second addition included 2 uM of ATP. Calcium mobilization was measured with the FDSS7000 over a time lapse of 3 min, and fluorescent counts were exported for analysis. […] Hill coefficients and % inhibitions can also be determined.

IC50 [3]: 4 nM
SMILES: CNC(=O)c1ccc(-c2nc3cc(C)ccn3c2C[C@H]2CN(C(C)=O)CCO2)c(C)c1 [Example 20]

IC50 [3]: 10 nM
SMILES: CNC(=O)c1cc(C)c(-c2nc3cc(C)ccn3c2C[C@H]2CN(C(=O)OC)CCO2)cc1F [Example 24]

IC50 [3]: 7 nM
SMILES: CNC(=O)c1ccc(-c2nc3cc(Cl)ccn3c2C[C@H]2CN(C(C)=O)CCO2)c(C)c1 [Example 25]

IC50 [3]: 11 nM
SMILES: CCC(=O)N1CCO[C@@H](Cc2c(-c3cc(F)c(C(=O)NC)cc3C)nc3cc(Cl)ccn23)C1 [Example 26]

IC50 [3]: 111 nM
SMILES: CNC(=O)c1ccc(-c2nc3cc(Cl)ccn3c2C[C@@H]2CN(C(C)=O)CCO2)c(C)c1 [Example 27]

IC50 [3]: 6 nM
SMILES: CNC(=O)c1cc(F)c(-c2nc3cc(Cl)ccn3c2C[C@H]2CN(C(=O)OC)CCO2)c(F)c1 [Example 28]

IC50 [3]: 6 nM
SMILES: CCC(=O)N1CCO[C@@H](Cc2c(-c3c(F)cc(C(=O)NC)cc3F)nc3cc(Cl)ccn23)C1 [Example 30]

IC50 [3]: 3 nM
SMILES: CNC(=O)c1cc(F)c(-c2nc3cc(C)ccn3c2C[C@H]2CN(C(C)=O)CCO2)c(F)c1 [Example 32]

IC50 [3]: 16 nM
SMILES: CCC(=O)N1CCO[C@H](Cc2c(-c3c(F)cc(C(=O)NC)cc3F)nc3cc(C)ccn23)C1 [Example 35]

IC50 [3]: 114 nM
SMILES: CNC(=O)c1ccc(-c2nc3cc(C#N)ccn3c2C[C@H]2CN(C(=O)OC)CCO2)c(C)c1 [Example 36]

IC50 [3]: 10 nM
SMILES: CNC(=O)c1ccc(-c2nc3cc(C)ccn3c2CC2CCCN(C(C)=O)C2)c(C)c1 (stereo not shown) [Example 38]

IC50 [3]: 59 nM
SMILES: CNC(=O)c1ccc(-c2nc3cc(C)ccn3c2CC2CC(C)N(C(C)=O)C2)c(C)c1 (stereo not shown) [Example 42]

IC50 [3]: 103 nM
SMILES: CNC(=O)c1ccc(-c2nc3cc(C)ccn3c2CC2CCN(C(C)=O)C2)c(C)c1 (stereo not shown) [Example 44]

IC50 [3]: 26 nM
SMILES: CNC(=O)c1ccc(-c2nc3cc(C)ccn3c2CC2CCN(C(=O)OC)CC2)c(C)c1 [Example 45, methyl 4-((7-methyl-2-(2-methyl-4-(methylcarbamoyl)phenyl)imidazo[1,2-a]pyridin-3-yl)methyl)piperidine-1-carboxylate]

Further lines, the compound ahead of its results:

SMILES: CNC(=O)c1cc(F)c(-c2nc3cc(C)ccn3c2C[C@H]2CN(C(=O)OC)CCO2)c(F)c1 [Example 15, (S)-methyl-2-((2-(2,6-difluoro-4-(methylcarbamoyl)phenyl)-7-methylimidazo[1,2-a]pyridin-3-yl)methyl)morpholine-4-carboxylate]
reversal of heat hyperalgesia [1]: free plasma concentration dependent reversal | reversal of mechanical hyperalgesia [2]: free plasma concentration dependent reversal

SMILES: CCC(=O)N1CCO[C@@H](Cc2c(-c3c(F)cc(C(=O)NC)cc3F)nc3cc(C)ccn23)C1 [Example 16]
IC50 [3]: 3 nM

SMILES: CCC(=O)N1CCO[C@@H](Cc2c(-c3cc(F)c(C(=O)NC)cc3C)nc3cc(C)ccn23)C1 [Example 17]
IC50 [3]: 6 nM

SMILES: CNC(=O)c1cc(C)c(-c2nc3cc(C)ccn3c2C[C@H]2CN(C(C)=O)CCO2)cc1F [Example 18]
IC50 [3]: 7 nM

SMILES: CNC(=O)c1cc(C)c(-c2nc3cc(C)ccn3c2C[C@@H]2CN(C(C)=O)CCO2)cc1F [Example 19]
IC50 [3]: 158 nM

SMILES: CNC(=O)c1ccc(-c2nc3cc(C)ccn3c2C[C@H]2CN(C(=O)OC)CCO2)c(C)c1 [Example 21]
IC50 [3]: 7 nM

SMILES: CNC(=O)c1ccc(-c2nc3cc(C)ccn3c2C[C@@H]2CN(C(=O)OC)CCO2)c(C)c1 [Example 22]
IC50 [3]: 45 nM

SMILES: CNC(=O)c1cc(F)c(-c2nc3cc(C)ccn3c2C[C@H]2CN(C(C)=O)CCO2)cc1F [Example 23]
IC50 [3]: 18 nM

SMILES: CNC(=O)c1cc(F)c(-c2nc3cc(Cl)ccn3c2C[C@H]2CN(C(C)=O)CCO2)c(F)c1 [Example 29]
IC50 [3]: 5 nM

SMILES: CCC(=O)N1CCO[C@@H](Cc2c(-c3ccc(C(=O)NC)cc3C)nc3cc(C)ccn23)C1 [Example 31]
IC50 [3]: 5 nM

SMILES: CCNC(=O)c1ccc(-c2nc3cc(C)ccn3c2C[C@H]2CN(C(C)=O)CCO2)c(C)c1 [Example 33]
IC50 [3]: 7 nM

SMILES: CNC(=O)c1ccc(-c2nc3cc(C)ccn3c2CC2CCCN(C(=O)OC)C2)c(C)c1 (stereo not shown) [Example 37]
IC50 [3]: 11 nM

SMILES: CNC(=O)c1ccc(-c2nc3cc(C)c(F)cn3c2C[C@H]2CN(C(C)=O)CCO2)c(C)c1 [Example 39]
IC50 [3]: 10 nM

SMILES: CNC(=O)c1ccc(-c2nc3cc(C)ccn3c2CC2CCN(C(=O)OC)C2)c(C)c1 (stereo not shown) [Example 41]
IC50 [3]: 84 nM

SMILES: CNC(=O)c1ccc(-c2nc3cc(C)ccn3c2CC2CCN(C(C)=O)CC2)c(C)c1 [Example 46, 4-(3-((1-acetylpiperidin-4-yl)methyl)-7-methylimidazo[1,2-a]pyridin-2-yl)-N,3-dimethylbenzamide]
IC50 [3]: 66 nM

SMILES: CNC(=O)c1ccc(-c2nc3cc(C)ccn3c2C[C@@H]2CN(C(C)=O)CCO2)c(C)c1 [Example 47]
IC50 [3]: 87 nM
